Tests used:
[1] = tested on: human airway epithelial cells (HAECs); experiment: High-throughput sequencing (HTS) of miRNAs at four stages of differentiation of HAECs; conditions: for Modulation (ratio of the level of intensity of expression in log2 in two stages of differentiation) measured by high-throughput sequencing, D7 − D0 / Modulation (ratio of the level of intensity of expression in log2 in two stages of differentiation) measured by high-throughput sequencing, FC − D7 / Modulation (ratio of the level of intensity of expression in log2 in two stages of differentiation) measured by high-throughput sequencing, WD − D0 / Modulation (ratio of the level of intensity of expression in log2 in two stages of differentiation) measured by high-throughput sequencing, WD − FC / Level of intensity of expression in log2 measured by high-throughput sequencing, D0 / Level of intensity of expression in log2 measured by high-throughput sequencing, D7 / Level of intensity of expression in log2 measured by high-throughput sequencing, FC / Level of intensity of expression in log2 measured by high-throughput sequencing, WD: Table VI; for Level of intensity of expression in log2 At the differentiated stage (WD) measured in HTS: healthy human airway epithelial tissue; for Level of intensity of expression in log2 measured by high-throughput sequencing, D0: stage D0; for Level of intensity of expression in log2 measured by high-throughput sequencing, D7: stage D7; for Level of intensity of expression in log2 measured by high-throughput sequencing, FC: stage FC; for Level of intensity of expression in log2 At the differentiated stage (WD) measured in HTS / Level of intensity of expression in log2 measured by high-throughput sequencing, WD: stage WD
How it was run: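 Total RNA including small RNAs was taken from air-liquid interface cultures at ALI-D0, ALI-D7, ALI-FC (first cilia, ~14 days) and ALI-WD (~21 days). SOLiD small-RNA libraries were sequenced, and 5p/3p reads were normalized to 10^6 sequences and expressed as percentage abundance.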

[2] = tested on: human airway epithelial cells (HAECs); experiment: Agilent miRNA chips, miRNA expression at four stages of differentiation of HAECs; conditions: for Modulation (ratio of the level of intensity of expression in log2 in two stages of differentiation) measured with the Agilent chips, D7 − D0 / Modulation (ratio of the level of intensity of expression in log2 in two stages of differentiation) measured with the Agilent chips, FC − D7 / Modulation (ratio of the level of intensity of expression in log2 in two stages of differentiation) measured with the Agilent chips, WD − D0 / Modulation (ratio of the level of intensity of expression in log2 in two stages of differentiation) measured with the Agilent chips, WD − FC / Level of intensity of expression in log2 measured with the Agilent chips, D0 / Level of intensity of expression in log2 measured with the Agilent chips, D7 / Level of intensity of expression in log2 measured with the Agilent chips, FC / Level of intensity of expression in log2 measured with the Agilent chips, WD: Table VI; for Modulation (ratio of the level of intensity of expression in log2 at two stages of differentiation), FC − D7 / Modulation (ratio of the level of intensity of expression in log2 at two stages of differentiation), WD − FC: Agilent miRNA chips, Table V; for Level of intensity of expression in log2 measured with the Agilent chips, D0: stage D0; for Level of intensity of expression in log2 measured with the Agilent chips, D7: stage D7; for Level of intensity of expression in log2 measured with the Agilent chips, FC: stage FC; for Level of intensity of expression in log2 measured with the Agilent chips, WD: stage WD
How it was run: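 RNA from the same patients' HAECs at four differentiation stages was labelled and hybridized with the Agilent miRNA labeling and hybridization kit. Chips were Human miRNA Microarray v2, with 866 human and 89 viral miRNAs (miRBase v12.0). Profiles were compared with high-throughput sequencing data.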

[3] = tested on: basal cells and pyramidal cells of the airway epithelium; experiment: miRNA expression in sorted basal cells versus pyramidal cells (ciliated + secretory), HTS and Agilent chips; parameters: species or system human; conditions: for Modulation of expression of the miRNAs in pyramidal cells (323(−)) relative to basal cells 323(+): HTS and Agilent chips; for Intensity of the level of expression in log2 in pyramidal cells (323(−)): pyramidal cells (ciliated + secretory)
How it was run: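 miRNA repertoires measured by high-throughput sequencing or Agilent arrays on total RNA from sorted airway epithelial populations of 3 donors. Sorting used CD151-PE and anti-tissue factor-FITC: double-positive basal versus double-negative ciliated/secretory cells, with DAPI-stained and aggregated cells excluded.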

Substance	Modulation (ratio of the level of intensity of expression in log2 in two stages of differentiation) measured by high-throughput sequencing, D7 − D0 [1]	Modulation (ratio of the level of intensity of expression in log2 in two stages of differentiation) measured by high-throughput sequencing, FC − D7 [1]	Modulation (ratio of the level of intensity of expression in log2 in two stages of differentiation) measured by high-throughput sequencing, WD − D0 [1]	Modulation (ratio of the level of intensity of expression in log2 in two stages of differentiation) measured by high-throughput sequencing, WD − FC [1]	Level of intensity of expression in log2 At the differentiated stage (WD) measured in HTS [1]	Level of intensity of expression in log2 measured by high-throughput sequencing, D0 [1]	Level of intensity of expression in log2 measured by high-throughput sequencing, D7 [1]	Level of intensity of expression in log2 measured by high-throughput sequencing, FC [1]	Level of intensity of expression in log2 measured by high-throughput sequencing, WD [1]	Modulation (ratio of the level of intensity of expression in log2 in two stages of differentiation) measured with the Agilent chips, D7 − D0 [2]	Modulation (ratio of the level of intensity of expression in log2 at two stages of differentiation), FC − D7 [2]	Modulation (ratio of the level of intensity of expression in log2 in two stages of differentiation) measured with the Agilent chips, FC − D7 [2]	Modulation (ratio of the level of intensity of expression in log2 in two stages of differentiation) measured with the Agilent chips, WD − D0 [2]	Modulation (ratio of the level of intensity of expression in log2 at two stages of differentiation), WD − FC [2]	Modulation (ratio of the level of intensity of expression in log2 in two stages of differentiation) measured with the Agilent chips, WD − FC [2]	Level of intensity of expression in log2 measured with the Agilent chips, D0 [2]	Level of intensity of expression in log2 measured with the Agilent chips, D7 [2]	Level of intensity of expression in log2 measured with the Agilent chips, FC [2]	Level of intensity of expression in log2 measured with the Agilent chips, WD [2]	Modulation of expression of the miRNAs in pyramidal cells (323(−)) relative to basal cells 323(+) [3]	also measured
hsa-let-7e: human miRNA, SEQ ID No. 160 (UGAGGUAGGAGGUUGUAUAGUU; expressed or natural sequence; listed as Homo sapiens)	0.38 log2	−0.27 log2	0.18 log2	0.07 log2	7.60 log2	7.42 log2	7.80 log2	7.53 log2	7.60 log2	1.38 log2	−0.57 log2	−0.57 log2	0.95 log2	0.15 log2	0.15 log2	8.53 log2	9.91 log2	9.34 log2	9.48 log2	−1.42	Intensity of the level of expression in log2 in basal cells (323(+)) [3]: 8.24 log2; Intensity of the level of expression in log2 in pyramidal cells (323(−)) [3]: 6.82 log2
hsa-miR-99a: human miRNA, SEQ ID No. 52 (AACCCGUAGAUCCGAUCUUGUG; expressed or natural sequence; listed as Homo sapiens)	1.43 log2	0.77 log2	2.88 log2	0.69 log2	9.00 log2	9.77 log2	11.19 log2	11.96 log2	12.65 log2	2.33 log2	0.77 log2	0.77 log2	3.28 log2	0.19 log2	0.19 log2	5.02 log2	7.35 log2	8.12 log2	8.31 log2	0.99	Modulation (ratio of the level of intensity of expression in log2 in two stages of differentiation), D7 − D0 ([1]; HTS): 1.43 log2; Modulation (ratio of the level of intensity of expression in log2 in two stages of differentiation), FC − D7 ([1]; HTS): 0.77 log2; Modulation (ratio of the level of intensity of expression in log2 in two stages of differentiation), WD − FC ([1]; HTS): 0.69 log2; Abundance (%), D0 ([1]; HTS, ALI-D0): 0.19%; Abundance (%), D7 ([1]; HTS, ALI-D7): 0.52%; Abundance (%), FC ([1]; HTS, ALI-FC): 0.85%; Abundance (%), WD ([1]; HTS, ALI-WD): 1.03%; Intensity of the level of expression in log2 in basal cells (323(+)) [3]: 5.42 log2; Intensity of the level of expression in log2 in pyramidal cells (323(−)) [3]: 6.40 log2
hsa-miR-30c: human miRNA, SEQ ID No. 34 (UGUAAACAUCCUACACUCUCAGC; expressed or natural sequence; listed as Homo sapiens)	0.32 log2	−0.33 log2	−0.40 log2	−0.39 log2	10.87 log2	0.42 log2	0.73 log2	0.41 log2	0.01 log2	1.97 log2	−0.34 log2	−0.34 log2	1.51 log2	−0.12 log2	−0.12 log2	7.80 log2	9.77 log2	9.43 log2	9.31 log2	−1.01	Intensity of the level of expression in log2 in basal cells (323(+)) [3]: 6.92 log2; Intensity of the level of expression in log2 in pyramidal cells (323(−)) [3]: 5.91 log2
